Measurements from patent US20060079497A1, “Lavendamycin analogues and methods of synthesizing and using lavendamycin analogues” (Ball State University, priority 2004, published 2006).

Legend:
[1] = test system: tumor; assay: Antitumor activity (applicant's earlier studies)
[2] = biological target: T1, HIV-RT (Human immunodeficiency virus type 1 group M subtype B, UniProt P04585); assay: Two drug combination of AZT-TP and analogues at constant molar ratios in HIV-RT assay (CI and dose reduction index); format: biochemical
T1 construct: 1 unit/mL of HIV-RT (Worthington Biochemical Corp., Freehold, N.J.); purchased Worthington Biochemical Corp., Freehold, N.J
From the text: In order to derive the dose reduction index of several of these compounds the method of Chou and Talalay was again employed using the classic isobologram technique. This method also involves the plotting of dose-effect curves for each agent as well as for multiply diluted fixed-ratio combinations of the agents.
The dose reduction index is a measure of how much the dose of each drug in a synergistic combination may be reduced at a given effect level compared with the doses of each drug alone.
The assay procedure described below is adapted from Okada et al. (Okada, H.; Mukai, H.; Inouye, Y; Nakamura, S. “Biological Properties of Streptonigrin Derivatives II. Inhibition of Reverse Transcriptase Activity,” J. Antibiot., 1986, 39, 306-308). The lavendamycin analogs were initially dissolved in DMSO at a concentration of 1 mg/mL. Occasionally, mild sonication and heat were used to dissolve the less soluble compounds. The dissolved analogs were then serially diluted in distilled water to achieve concentrations in the final reaction mixture ranging from 0.5-15 μM. In addition to the lavendamycin analogs, the final reaction mixture contained 100 mM Tris-HCl (pH 8.0), 5 mM MgCl2, 5 mM dithiothreitol, 60 mM NaCl, 0.2 mM [^3H] thymidine triphosphate(5 μCi well), 4 μg/mL poly (rA)-oligo(dT)12-18 (Amersham Pharmacia Biotech, Piscataway, N.J.) and 1 unit/mL of HIV-RT (Worthington Biochemical Corp., Freehold, N.J.) in a total volume of 300 μL. For each assay, the reaction mixture containing 8× buffer, double distilled H2O, ^3HTTP, template-primer and HIV-RT was pre-mixed in a 15-mL sterile tube in quantities required for the particular experiment. After adding the enzyme, the reaction mixture was mixed and kept on ice. The inhibitors, either AZT(Moravek Biochemicals, Brea, Calif.), analogs or both were added to appropriate wells in a 24 well microtiter plate and ddH2O was added to each well to bring the volume of all test wells to 100 μL. Two hundred μL of the chilled reaction mixture was then added to each of the test wells, mixed, and incubated for 1 hr at 37° C. Several control wells with no inhibitors were included on each test plate. After stopping the reactions with 25 μL 0.1 M EDTA, triplicate samples of 15 μL from each test well were spotted on DE81 ion exchange filter paper squares (Whatman Paper, Maidstone, England). After drying, each filter was washed for 10 minutes three times with 5% TCA-NHPO4, three times with 0.6M NaCl-[…] Na Citrate, one time with ddH2O and one time with 95% ethanol. After drying the individual filter papers were added to 5 mL Scintiverse E (Fisher Scientific, Chicago, Ill.) scintillation fluid and the amount of 3H-TTP uptake measured as counts per minute on a Beckman liquid scintillation counter. […] The results were then analyzed using Calcusyn, a windows software program for dose effect analysis designed by T. -C. Chou and M. P. Hayball and published by Biosoft® (UK).

[3] = Water solubility in HEPES buffer solution; format: physicochemical
[4] = test system: BALB/c mice; assay: In vivo toxicity of analogue 19 in BALB/c mice; design: species or system mouse
From the text: Analogue 19 was first solubilized in 10% dry DMSO, diluted in water, and given to the mice intraperitoneally in one dose or in two doses per day. Mice were weighed and observed for 3 days following treatment.

With `COC(=O)c1nc(-c2ccc3c(n2)C(=O)C(NC(C)=O)=CC3=O)c2[nH]c3ccccc3c2c1C` [Compound 11, 7-acetyllavendamycin methyl ester] as the compound, how does the antitumor activity [1] read?
Its antitumor activity is “highly active antitumor agents”.

What does the source list for `CCCCOC(=O)c1cc2c([nH]c3ccccc32)c(-c2ccc3c(n2)C(=O)C(NC(=O)CCC)=CC3=O)n1` [Compound 12, 7-N-n-Butyryidemethyllavendamycin n-Butyl Ester]?
dose reduction in combination with AZT-TP [2]: considerable dose reduction; CI at HIV-RT Inhibition of 50% ([2]; molar ratio AZT:analogue 1:600): 0.45 ± 0.06; CI at HIV-RT Inhibition of 70% ([2]; molar ratio AZT:analogue 1:600): 0.32 ± 0.08; Dose Reduction Index (50%) AZT-TP ([2]; molar ratio AZT:analogue 1:600): 3.0; Dose Reduction Index (50%) analogue ([2]; molar ratio AZT:analogue 1:600): 8.2; CI at HIV-RT Inhibition of 50% ([2]; molar ratio AZT:analogue 1:857): 0.39 ± 0.06; CI at HIV-RT Inhibition of 70% ([2]; molar ratio AZT:analogue 1:857): 0.32 ± 0.09; Dose Reduction Index (50%) AZT-TP ([2]; molar ratio AZT:analogue 1:857): 3.9; Dose Reduction Index (50%) analogue ([2]; molar ratio AZT:analogue 1:857): 7.3

Which antitumor activity [1] does the source give for `CC(=O)NC1=CC(=O)c2ccc(-c3nc(C(N)=O)cc4c3[nH]c3ccccc34)nc2C1=O` [Compound 16, 7-N-Acetyldemethyllavendamycin Amide] here?
Its antitumor activity is “highly active antitumor agents”.

Which “dose reduction in combination with AZT-TP” value [2] does the source give for `CC(=O)NC1=CC(=O)c2ccc(-c3nc(C(=O)O)cc4c3[nH]c3ccccc34)nc2C1=O` [Compound 18, 7-N-Acetyldemethyllavendamycin] here?
Its value is “considerable dose reduction”.

What about the “CI at HIV-RT Inhibition of 70%” value ([2]; molar ratio AZT:analogue 1:600) of the same compound?
The value was 1.35 ± 0.64.

And the “Dose Reduction Index (50%) AZT-TP” value ([2]; molar ratio AZT:analogue 1:600)?
Its value is 1.5.

And the “Dose Reduction Index (50%) analogue” value ([2]; molar ratio AZT:analogue 1:600)?
Its value is 2.6.

What about the “CI at HIV-RT Inhibition of 70%” value ([2]; molar ratio AZT:analogue 1:857) of the same compound?
Its value is 1.7 ± 1.49.

And the “Dose Reduction Index (50%) AZT-TP” value ([2]; molar ratio AZT:analogue 1:857)?
The value was 1.7.

And the “Dose Reduction Index (50%) analogue” value ([2]; molar ratio AZT:analogue 1:857)?
The value was 2.0.

And the Water solubility [3]?
The Water solubility was 0.05 mg/1 L.

What does the source list for `CC(=O)NC1=CC(=O)c2ccc(-c3nc(C(=O)OCCOP(=O)(O)O)cc4c3[nH]c3ccccc34)nc2C1=O` [Compound 19]?
dose reduction in combination with AZT-TP [2]: considerable dose reduction; CI at HIV-RT Inhibition of 50% ([2]; molar ratio AZT:analogue 1:600): <0.1 ± 0.10; CI at HIV-RT Inhibition of 70% ([2]; molar ratio AZT:analogue 1:600): <0.1 ± 0.16; Dose Reduction Index (50%) AZT-TP ([2]; molar ratio AZT:analogue 1:600): >100; Dose Reduction Index (50%) analogue ([2]; molar ratio AZT:analogue 1:600): >100; CI at HIV-RT Inhibition of 50% ([2]; molar ratio AZT:analogue 1:857): <0.1 ± 0.15; CI at HIV-RT Inhibition of 70% ([2]; molar ratio AZT:analogue 1:857): 0.21 ± 0.18; Dose Reduction Index (50%) AZT-TP ([2]; molar ratio AZT:analogue 1:857): >40; Dose Reduction Index (50%) analogue ([2]; molar ratio AZT:analogue 1:857): >15; survival and tolerability ([4]; 50 mg/kg as one ip injection): survived and tolerated; survival and tolerability ([4]; 75 mg/kg ip in two injections within twenty-four hours): survived and tolerated; Water solubility [3]: 0.05 mg/1 mL

What does the source list for `CCCCCCCCOC(=O)c1cc2c([nH]c3ccccc32)c(-c2ccc3c(n2)C(=O)C(N)=CC3=O)n1` [Compound 20, Demethyllavendamycin n-Octyl Ester]?
dose reduction in combination with AZT-TP [2]: considerable dose reduction; CI at HIV-RT Inhibition of 50% ([2]; molar ratio AZT:analogue 1:214): 0.46 ± 0.11; CI at HIV-RT Inhibition of 70% ([2]; molar ratio AZT:analogue 1:214): 0.56 ± 0.22; Dose Reduction Index (50%) AZT-TP ([2]; molar ratio AZT:analogue 1:214): 4.08; Dose Reduction Index (50%) analogue ([2]; molar ratio AZT:analogue 1:214): 4.63; CI at HIV-RT Inhibition of 50% ([2]; molar ratio AZT:analogue 1:600): 0.49 ± 0.17; CI at HIV-RT Inhibition of 70% ([2]; molar ratio AZT:analogue 1:600): 0.40 ± .09; Dose Reduction Index (50%) AZT-TP ([2]; molar ratio AZT:analogue 1:600): 2.4; Dose Reduction Index (50%) analogue ([2]; molar ratio AZT:analogue 1:600): 13.7
